Test system: Nephotettix cincticeps
Assay: Rice plant spray test, action against Nephotettix cincticeps
Assay type: in vivo
Settings: 20° C, 21 days; for control (percentage reduction in population, % action): spray 400 ppm, 2nd and 3rd stages; for control level: plot (b) conventional rice plants, 400 ppm compound
Experimental: (§1) Rice plants on a plot (a) expressing the δ-endotoxin CryIA(b) and conventional rice plants on a plot (b) are sprayed with a spray mixture comprising 400 ppm thiamethoxam. Immediately afterwards, plot (b) is treated with an emulsion spray mixture comprising 400 ppm of the δ-endotoxin CryIA(b). After the spray coating has dried on, the plants are infected with Nephotettix cincticeps of the 2nd and 3rd stages. The seedlings of plot (a) and (b) are then incubated at 20° C. The test is evaluated after 21 days.
The percentage reduction in population (% action) is determined by comparing the number of dead pests on the plants of plot (a) with that on the plants of plot (b).
as §1, with “CryIA(c)” for “CryIA(b)”, “CryIA(c).” for “CryIA(b).”

Structure (SMILES): CN1COCN(Cc2cnc(Cl)s2)/C1=N\[N+](=O)[O-] [thiamethoxam, 5-(2-Chlorthiazol-5-ylmethyl)-3-methyl-4-nitroimino-perhydro-1,3,5-oxadiazin]
- control (percentage reduction in population, % action) (plot (a) rice plants expressing δ-endotoxin CryIA(b)): Improved control
- control (percentage reduction in population, % action) (plot (a) rice plants expressing δ-endotoxin CryIA(c)): Improved control
- control level (then 400 ppm δ-endotoxin CryIA(b)): ≤ 60%
- control level (then 400 ppm δ-endotoxin CryIA(c)): ≤ 60%
